Assay [1] relates to UVB-induced IL6 expression in human skin epithelial cells (ATCC CRL-2592). As to the kind of experiment: UVB-induced IL6 expression in skin epithelial cells (ELISA). In kind it is cell-based. Conditions: for IL6 (OD 450): UVB 35 seconds, then 40 μg/mL peptide for twenty hours, UV only 0.7305, control 0.0730. The procedure: FIG. 3: Effect of short peptides on UVB-induced IL6 expression in skin epithelial cells. Cells were exposed to UVB irradiation for 35 seconds, after which cells were incubated in complete medium (no serum) with 40 μg/mL peptide [HB-107 (SEQ ID NO:1), HB-802 (SEQ ID NO:12), HB-1410 (SEQ ID NO:15), HB-801 (SEQ ID NO:31)] for twenty hours. IL6 expression was then measured by ELISA. Refer to Example 4.
An assay was performed to determine whether peptide fragments of HB-107 can induce anti-inflammatory activity in cells exposed to ultraviolet light. Human skin epithelial cells (ATCC CRL-2592) were seeded into 6-well plates and grown to more than 95% confluence in DMEM with 4 mM L-glutamine adjusted to contain 1.5 g/L sodium bicarbonate and 4.5 g/L glucose (complete medium) supplemented with 10% fetal bovine serum. The cells were serum starved for 5 hours prior to UVB treatment. UVB was generated using a UVLMS lamp (4W model, 3UV assembly, Upland, Calif.) with the irradiation wavelength set at 302 nm. The UV lamp was placed 12 cm above the tissue culture plate (6-well plate) and two wells were treated at one time to allow homogenous UVB irradiation. Cells were exposed to UVB irradiation (450 μW/cm^2, measured using a radiometer) in PBS to avoid ultraviolet light-induced generation of toxic photochemicals. IL6 expression was measured as an indicator of cell inflammatory activity in response to UVB.
Individual peptides were screened to determine the effects thereof on UVB-induced IL6 expression in skin epithelial cells. Cells were exposed to UVB (450 μW/cm^2) for 35 seconds in PBS, after which the PBS was replaced with complete medium without serum in the presence or absence of 40 μg/ml peptide and incubated at 37 degrees C./5% CO2 for twenty hours. The supernatant media was then collected and centrifuged at 10,000 rpm to remove debris, prior to ELISA for human IL6 (CellSciences, Mass.).

The test system of assay [2] is PAM 212 murine epidermal keratinocyte. The assay can be described thus: Cell proliferation assay, PAM 212 murine epidermal keratinocytes. In kind it is cell-based. Conditions: for cell proliferation as a percent of control cell proliferation: control = cells treated with PBS only; for cell proliferation activity (in words): epidermal keratinocytes. The procedure: To examine this question, an overlapping set of peptide fragments of HB-107 was generated using standard solid phase peptide chemistry. These peptides were then assayed for cell proliferation activity at concentrations of 0.22, 2.15, 21.5 and 46.4 μg/mL.
The cell proliferation assays proceeded from the following experimental protocol:
Cell Proliferation Assay Using a Mouse Keratinocyte Cell Line.
OBJECTIVE: To determine the anti-proliferative or cytotoxic potential of a test article when applied to epidermal keratinocytes in culture.
TEST SYSTEM: Either the murine keratinocyte cell line PAM212 or primary Normal Human Epidermal Keratinocytes (NHEK, from Clonetics) are preferred models, although other cells may be used.
Keratinocytes are examined microscopically daily. As the culture becomes 50-75% confluent, the media in the plate is aspirated and 0.25% trypsin/EDTA is added (0.05% trypsin for human cells). When the cells become rounded, the trypsin is neutralized by addition of an equal volume of DMEM or KBM supplemented with approximately 10% bovine serum or by using trypsin neutralizing solution (TNS, from Clonetics). Cells are then centrifuged and the pellet is resuspended in 1 ml of DMEM-1 or KBM. A hemacytometer is used to count the cell suspension and the total number of cells/mL is adjusted to 1.5-2.5×10^4 cells/mL with DMEM-1 or KBM. Cells are then plated in 96-well plates at a concentration of 3.0-5.0×10^3 cells/well by adding 200 μL of the cell suspension to each well. Typically, the central 60 wells are used and the outer wells are filled with DMEM or PBS to minimize evaporation effects.
A stock solution of the test article is prepared using DMEM-1 or KBM, and all other dilutions are henceforth prepared from this solution. Typically, each dilution is filtered through an 0.2-μm filter before application to the cell culture. A 1.0% (w/v or v/v) solution or suspension is prepared, and 10-fold or 3-fold serial dilutions are made in culture medium.
The cells are examined 18-24 hours after plating to ensure cell attachment and division, and then 100 μL of the media is aspirated, leaving behind 100 μL in each well. Then 100 μL of a 2× concentration of each test article dilution is added to the replicate wells. For the negative control, 100 μL of the vehicle media (DMEM-1 or KBM) is added to the control wells. The microplate is then incubated at 37 degrees C. and 5.0% CO2 for 48-72 hours after dosing, and cells are allowed to proliferate undisturbed. Following this 48-72 hour exposure, all media is aspirated and proliferation is assessed by one of the below methods.
Option A: neutral red uptake. After exposure and aspiration of media, 200 μL of neutral red media is immediately added to each well. The microplate is returned to the incubator for an additional three hours. Following this dye uptake period, the microplate is removed from the incubator and gently inverted, and the neutral red media is decanted into a collection pan. The cells are then fixed with fixing solution for approximately one minute. The fixing solution is decanted off, and the microplate is washed gently three times with washing solution. The washing solution is decanted, and 200 μL of lysing solution is added. After at least 15 minutes, the contents of each well are re-pipetted to ensure even color distribution in each well, and an aliquot is read on the spectrophotometer as detailed below.
Option B: MTT conversion assay. After exposure and aspiration of media, 200 μL of MTT assay media is immediately added to each well. […] The microplate is returned to the incubator for an additional three hours. Following this dye uptake period, the microplate is removed from the incubator and gently inverted, and the MTT media is decanted into a collection pan. The cells are then washed gently three times with washing solution. The washing solution is decanted, and 200 μL of lysing solution is added. […]

The test system of assay [3] is IL6 expression in epithelial cells. As to the kind of experiment: Repression of IL6 expression in resting epithelial cells. The class given is cell-based. The settings on record: for % Change in IL6 expression / Change in IL6 versus PBS control: 20 μg/mL peptide. An excerpt: The protocol for this assay is standard and described by Murakami et al. (2004, J. Immunol. 172:[…]), the article of which is incorporated herein by reference in its entirety.

The conditions of assay [4]: Lee et al., 2004; cited from earlier work.
For assay [5] the following is noted: compared with cecropin B; cited from earlier work.
In assay [6] the test system is human epidermal keratinocyte. As to the kind of experiment: Keratinocyte cell migration assay (tissue culture scratch test). In kind it is cell-based. An excerpt: Cell proliferation alone is not sufficient to aid in wound healing. Upon sustaining an injury, cells bordering the wound proliferate; the migration of such newly formed cells to close the injury (or chronic lesion of older, dysfunctional tissue) is of equal importance. To address this issue, HB-107 and peptide fragments thereof were examined using a keratinocyte cell migration assay based on a simple tissue culture scratch test. […] The protocol for this assay is standard and has been described by Shanley et al. (2004, Invest. Ophthalmol. Vis. Sci. 45:1088-1094), the article of which is herein incorporated by reference in its entirety.

The mark [7] stands for this setting: 24 hr after addition of 20 μg/mL peptide.
The mark [8] stands for this setting: 48 hr after addition of 20 μg/mL peptide.

These results are taken from patent US7696174B2, “Short bio-active peptides for cellular and immunological modulation” (Helix Biomedix, Inc., priority 2007, dated 2010).

Entries after “also recorded” stand apart in the source; their conditions may differ. Like-named read-outs stand apart in the source and are kept apart here.

For the substance “MPKEK (listed as Hyalophora cecropia) [HB-802, fragment of HB-107]”, in assay [1], the “IL6 (OD 450)” value is 0.6500 OD 450. In addition, the “cell proliferation as a percent of control cell proliferation” value (shortened to “cell proliferation as a percent”) was found to be 121% in assay [2] (0.22 μg/mL peptide), 130% in assay [2] (2.15 μg/mL peptide), 135% in assay [2] (21.5 μg/mL peptide) and 133% in assay [2] (46.4 μg/mL peptide). For the same substance, the “cell proliferation activity (in words)” value in assay [2] is listed as “can induce cell proliferation”. Also, the “IL6 reduction / anti-inflammatory activity in resting cells (in words)” value in assay [3] was “decrease the level of IL6 expression to the same degree as the HB-107 parent peptide; also recorded: ability to reduce IL6 in resting cells”; in assay [3] (listed as SEQ ID:12) it was “displays both proliferative and anti-inflammatory activities”. For the same substance, the “amount of IL6, Average” value was determined as 283.485 pg/mL in assay [3] (setting [7]) and 768.045 pg/mL in assay [3] (setting [8]). Moreover, the “amount of IL6, Well 1” value in assay [3] (setting [7]) is on record as 278.32 pg/mL; in assay [3] (setting [8]) it was 774.07 pg/mL. Further, the figures for the “amount of IL6, Well 2” value in assay [3] (setting [7]) and in assay [3] (setting [8]) were 288.65 pg/mL and 762.02 pg/mL, respectively. The “% Change in IL6 expression” value is −12.50% in assay [3] (24 hr) and −21.20% in assay [3] (48 hr). Moreover, the “Change in IL6 versus PBS control” value in assay [3] (24 hr) was −40.435; in assay [3] (48 hr) it was −206.99.

As for “MPKEKVFLKIEKMGRNIRN (listed as Hyalophora cecropia) [HB-107, parent peptide, a fragment of cecropin B, an antimicrobial protein present in a species of moth, reference compound]”, the “wound healing in vivo (in words)” value in assay [4] was “does display epidermal wound healing qualities; also recorded: stimulate wound healing in vivo”. Moreover, the “bacteriostatic effects (in words)” value in assay [5] is given as “does not display the bacteriostatic effects”. For the same substance, the “IL6 (OD 450)” value in assay [1] stood at 0.7315 OD 450. In addition, the “cell proliferation as a percent” value in assay [2] (0.22 μg/mL peptide) turned out to be 57%; in assay [2] (2.15 μg/mL peptide) it was 75%; in assay [2] (21.5 μg/mL peptide), 121%; in assay [2] (46.4 μg/mL peptide), 126%. The “amount of IL6, Average” value in assay [3] (setting [7]) stood at 286.065 pg/mL; in assay [3] (setting [8]), 738.35 pg/mL. Moreover, the “amount of IL6, Well 1” value came to 307.58 pg/mL in assay [3] (setting [7]) and 690.58 pg/mL in assay [3] (setting [8]). Also, the “amount of IL6, Well 2” value in assay [3] (setting [7]) amounted to 264.55 pg/mL; in assay [3] (setting [8]), 786.12 pg/mL. Further, the “% Change in IL6 expression” value in assay [3] (24 hr) is −11.60%; in assay [3] (48 hr), −24.30%. The “Change in IL6 versus PBS control” value in assay [3] (24 hr) is given as −37.435; in assay [3] (48 hr) it was −236.685. Also, the “percent closure of the scratch compared to initial width” value was 52% in assay [6] (6 hr exposure to peptide) and 78% in assay [6] (10 hr exposure to peptide).

“PKEKV (listed as Hyalophora cecropia) [HB-801, fragment of HB-107]”: in assay [1], the “IL6 (OD 450)” value turned out to be 0.8275 OD 450. Moreover, the “cell proliferation as a percent” value is reported as 101% in assay [2] (0.22 μg/mL peptide), 100% in assay [2] (2.15 μg/mL peptide), 113% in assay [2] (21.5 μg/mL peptide) and 131% in assay [2] (46.4 μg/mL peptide). The “cell proliferation activity (in words)” value in assay [2] is “can induce cell proliferation”.

Turning to “PKEK (listed as Hyalophora cecropia) [HB-1410, fragment of HB-107]”, in assay [1], the “reduction of UVB-induced IL6 / anti-inflammatory activity (in words)” value is “capable of significantly reducing the level of IL6” and the “IL6 (OD 450)” value came out at 0.5105 OD 450. In addition, the “reduction of UVB-induced IL6 / anti-inflammatory activity (in words)” value in assay [1] (listed as SEQ ID NO:15) is recorded as “having anti-inflammatory activity”.
